Test [1] relates to S. aureus NCTC8325 cells. Put plainly: Protonophore assay, intracellular pH by BCECF AM. In kind it is cell-based, Staphylococcus aureus. Particulars: 1× MIC, 10 min; for intracellular pH after compound addition: dropped from pH 7.8.
The test system of test [2] is B. subtilis 168. Put plainly: MIC, broth microdilution. Format: cell-based. Particulars: Bacillus subtilis, 168, 20 h, read-out: MIC B. subtilis 168.
Test [3] deals with S. aureus NCTC8325. Put plainly: MIC, broth microdilution. In kind it is cell-based. Particulars: Staphylococcus aureus, NCTC8325, 20 h, read-out: MIC S. aureus NCTC8325. (Broth dilution looks for growth in wells or tubes with falling amounts of substance.)
In test [4] the test system is S. aureus NCTC8325. Put plainly: Pore-forming assay, SYTO9/propidium iodide costaining. In kind it is cell-based, Staphylococcus aureus. Particulars: 4× MIC; nisin 100 μg mL^–1; 35 min.
The test system of test [5] is S. aureus. The following applies: atropisomers compared; cited from earlier work.
Test [6] deals with B. subtilis 168 cells. As to the kind of experiment: Membrane dye FM 5–95 labeling after compound exposure. Format: cell-based, Bacillus subtilis. Particulars: B. subtilis 168, 1× MIC, 15 min; CCCP 100 μM.
For test [7], the system named is GFP-MinD in B. subtilis cells. As to the kind of experiment: GFP-MinD localization. Format: cell-based, Bacillus subtilis. The following applies: 10 min, 1× MIC, CCCP 100 μM.

≈ marks a conversion by molar mass, not a printed value.

As a reminder, the MIC is the lowest concentration that inhibits growth of the organism.

On to `Oc1c(Cl)cc(Cl)cc1-c1[nH]c(Cl)c(Cl)c1Cl` [compound 3, pentachloropseudilin], for which, in test [1], the “drop of intracellular pH (Δ)” value is given as 0.2 pH units and the “intracellular pH after compound addition” value came to 7.6. Further, in test [2], the MIC was found to be 4 ng/mL (≈ 0.0121 µM). The MIC in test [3] was 4 ng/mL (≈ 0.0121 µM). Also, the “membrane integrity / pore formation (SYTO9/propidium iodide)” value in test [4] is “only green fluorescence”.

As to `Oc1c(Br)cc(Br)cc1-c1[nH]c(Br)c(Br)c1Br` [compound 2, pentabromopseudilin], in test [1], the “drop of intracellular pH (Δ)” value came out at 0.2 pH units. The “intracellular pH after compound addition” value in test [1] was determined as 7.6. For the same compound, the MIC in test [2] and in test [3] was 16 ng/mL (≈ 0.0289 µM) throughout.

On to nisin [reference compound], for which, in test [4], the “membrane integrity / pore formation (SYTO9/propidium iodide)” value is “clear red fluorescence indicative of pore formation”.

Turning to `O=C(c1ccccc1O)c1[nH]c(Cl)c(Cl)c1-n1c(C(=O)c2ccccc2O)cc(Cl)c1Cl` (atropisomer, axis not shown; (M)) [(−)-(M)-MarA], the “potency against S. aureus” value in test [5] is “equal potency”.

In the case of `N#CC(C#N)=NNc1cccc(Cl)c1` [CCCP, carbonyl cyanide m-chlorophenyl hydrazone], the “localization of membrane dye FM 5–95 after treatment” value in test [6] is “aggregated, inhomogeneous, “spotty” localization”. In addition, the “GFP-MinD localization after treatment” value in test [7] is “diffuse and spotty”.
